Laboratory results published in patent US6548494B1, “Tricyclic inhibitors of poly(ADP-ribose) polymerases” (Agouron Pharmaceuticals, Inc., priority 1999, dated 2003).
Several values for one entry are separate records, joined by “and”; a condition that tells them apart may be missing. Equal values may be shown once. Where a name gives a salt, the structure may show the parent alone. Read-outs that look alike come from different tables or passages of the source.

Key:
purified PARP protein = purified PARP protein (Homo sapiens, UniProt P09874); test: PARP enzyme inhibition assay; format: biochemical
[1] = 20 nM purified PARP (5 nM for tight-binding inhibitors), 500 μM NAD+, 25° C., several values in one cell = repeat determinations, read-out: Inhibition Constant Ki

Chain of purified PARP protein (P09874 whole entry): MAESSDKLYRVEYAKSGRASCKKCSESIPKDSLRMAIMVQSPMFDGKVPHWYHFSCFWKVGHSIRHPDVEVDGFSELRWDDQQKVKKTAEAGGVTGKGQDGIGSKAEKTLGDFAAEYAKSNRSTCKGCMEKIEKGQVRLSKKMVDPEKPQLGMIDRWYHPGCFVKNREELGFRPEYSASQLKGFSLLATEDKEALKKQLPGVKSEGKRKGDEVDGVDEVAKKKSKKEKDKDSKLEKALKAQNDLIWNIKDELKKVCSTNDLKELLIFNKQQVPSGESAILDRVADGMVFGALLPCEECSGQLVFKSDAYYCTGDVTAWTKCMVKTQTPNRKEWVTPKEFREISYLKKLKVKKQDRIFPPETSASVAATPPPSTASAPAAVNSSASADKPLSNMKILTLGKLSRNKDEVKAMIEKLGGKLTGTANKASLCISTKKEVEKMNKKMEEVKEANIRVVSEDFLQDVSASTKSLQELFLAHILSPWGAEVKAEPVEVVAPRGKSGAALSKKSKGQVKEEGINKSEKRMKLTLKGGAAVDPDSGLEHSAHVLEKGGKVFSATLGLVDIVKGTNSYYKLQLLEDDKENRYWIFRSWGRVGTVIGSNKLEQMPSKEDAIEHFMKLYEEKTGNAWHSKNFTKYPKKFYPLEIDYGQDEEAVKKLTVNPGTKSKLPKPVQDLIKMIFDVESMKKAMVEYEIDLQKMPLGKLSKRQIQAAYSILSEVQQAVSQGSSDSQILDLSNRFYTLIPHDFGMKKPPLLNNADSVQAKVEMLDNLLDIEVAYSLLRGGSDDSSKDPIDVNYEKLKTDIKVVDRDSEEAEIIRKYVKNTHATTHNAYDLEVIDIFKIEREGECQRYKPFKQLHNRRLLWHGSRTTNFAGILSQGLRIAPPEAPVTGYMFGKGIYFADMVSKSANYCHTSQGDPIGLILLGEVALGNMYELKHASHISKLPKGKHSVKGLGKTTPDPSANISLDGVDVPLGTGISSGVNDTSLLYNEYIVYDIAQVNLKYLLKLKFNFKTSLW

| SMILES | melting point | Ki (purified PARP protein; [1]) | Ki (purified PARP protein; Inhibition Constant Ki (nM)) [nM] |
| --- | --- | --- | --- |
| O=Cc1c(-c2ccc(F)cc2)n2c3c(cccc13)C(=O)NCC2 | 268 to 270 °C |  |  |
| N/N=C(\N)c1c(-c2ccc(F)cc2)n2c3c(cccc13)C(=O)NCC2 (as salt: hydrochloride) [Example 156, 7-Formyl-6-(4-fluorophenyl)-1-oxo-3,4-dihydro-[1,4]diazepino[6,7,1-hi]indole Amidrazone Hydrochloride] | 272 to 274 °C |  |  |
| O=C1NCCn2c(-c3ccno3)nc3cccc1c32 [Example 13, 1-Isoxazol-5-yl-8,9-dihydro-7H-2,7,9a-triaza-benzo[cd]azulen-6-one] | 226 °C (dec.) | 10.1 nM |  |
| O=C1NCCn2c(-c3ccnc(Cl)c3)nc3cccc1c32 [Example 15, 1-(2-Chloropyridin-4-yl)-8,9-dihydro-7H-2,7,9a-triaza-benzo[cd]azulen-6-one] | 265 °C (dec.) | 12.1 nM |  |
| O=C1NCCn2c(-c3cccc(Oc4cccnc4)c3)nc3cccc1c32 [Example 16, 1-[3-(Pyridin-3-yloxy)-phenyl]-8,9-dihydro-7H-2,7,9a-triaza-benzo[cd]azulen-6-one] | 223 to 225 °C | 7.2 nM |  |
| CC(C)(C)c1nc2cccc3c2n1CCNC3=O [Example 22, 1-tert-Butyl-8,9-dihydro-7H-2,7,9a-triaza-benzo[cd]azulen-6-one] | 246 to 248 °C | 13 nM and 14 nM and 15 nM |  |
| CC(C)Cc1nc2cccc3c2n1CCNC3=O [Example 23, 1-Isobutyl-8,9-dihydro-7H-2,7,9a-triaza-benzo[cd]azulen-6-one] | 211 to 212 °C | 17.3 nM |  |
| CN1CCn2c(-c3cccc4ccccc34)nc3cccc(c32)C1=O [Example 27, 7-Methyl-1-naphthalen-1-yl-8,9-dihydro-7H-2,7,9a-triaza-benzo[cd]azulen-6-one] | 126 °C (dec.) |  |  |
| O=C1NCCn2c(SCc3ccccc3)nc3cccc1c32 [Example 29, 1-Benzylsulfanyl-8,9-dihydro-7H-2,7,9a-triaza-benzo[cd]azulen-6-one] | 189 to 191 °C | 24 nM |  |
| O=C1NCCn2c(-c3cccc(C4OCCCO4)c3)nc3cccc1c32 [Example 30, 1-(3-[1,3]-Dioxan-2-yl-phenyl)-8,9-dihydro-7H-2,7,9a-triaza-benzo[cd]azulen-6-one] | 247 °C (dec.) |  |  |
| COC(OC)c1cccc(-c2nc3cccc4c3n2CCNC4=O)c1 [Example 31a, 1-(3-Dimethoxymethyl-phenyl)-8,9-dihydro-7H-2,7,9a-triaza-benzo[cd]azulen-6-one] | 182 to 185 °C | 22 nM |  |
| O=C1NCCn2c(-c3cccc(CO)c3)nc3cccc1c32 [Example 32a, 1-(3-Hydroxymethyl-phenyl)-8,9-dihydro-7H-2,7,9a-triaza-benzo[cd]azulen-6-one] | 275 to 278 °C | 8.8 nM |  |
| COc1ccc(-c2cc3cccc4c3n2CCNC4=O)cc1 [Example 35, 6-(4-Methoxyphenyl)-3,4-dihydro-2H-[1,4]diazepino[6,7,1-hi]indol-1-one] | 193 to 195 °C | 8.2 nM |  |
| O=C1NCCn2c(CCc3ccccc3)cc3cccc1c32 [Example 36, 6-Phenethyl-3,4-dihydro-2H-[-1,4]diazepino[6,7,1-hi]indol-1-one] | 133 to 135 °C |  | 27 |
| O=C1NCCn2c(-c3ccccn3)cc3cccc1c32 [Example 40, 6-Pyridin-2-yl-3,4-dihydro-2H-[1,4]diazepino[6,7,1-hi]indol-1-one] | 173 to 175 °C | 68 nM |  |
| O=C1NCCn2c(-c3cccc(C4OCCO4)c3)nc3cccc1c32 [Example 55, (3-[1,3]Dioxolan-2-yl-phenyl)-8,9-dihydro-7H-2,7,9a-triaza-benzo[cd]azulen-6-one] | 223 to 225 °C | 10 nM |  |
| CCOC(OCC)c1ccc(-c2nc3cccc4c3n2CCNC4=O)cc1 [Example 56, 1-(4-Diethoxymethyl-phenyl)-8,9-dihydro-7H-2,7,9a-triaza-benzo[cd]azulen-6-one] | 213 to 215 °C | 32 nM |  |
| O=C1NCCn2c(-c3cccc(CN4CCCC4)c3)nc3cccc1c32 [Example 60, 1-(3-Pyrrolidin-1-ylmethyl-phenyl)-8,9-dihydro-7H-2,7,9a-triaza-benzo[cd]azulen-6-one] | 92 °C (dec.) | 6.2 nM |  |
| O=C1NCCn2c(-c3cccc(Oc4cccc(C(F)(F)F)c4)c3)nc3cccc1c32 [Example 61, 1-[3-(3-Trifluoromethyl-phenoxy)-phenyl]-8,9-dihydro-7H-2,7,9a-triaza-benzo[cd]azulen-6-one] | 121 to 122 °C | 6.2 nM |  |
| O=C1NCCn2c(-c3cccc(Oc4ccc(Cl)cc4)c3)nc3cccc1c32 [Example 62, 1-[3-(4-Chlorophenoxy)-phenyl]-8,9-dihydro-7H-2,7,9a-triaza-benzo[cd]azulen-6-one] | 211 to 212 °C | 6.1 nM |  |

| SMILES | melting point | Ki (purified PARP protein; [1]) | Ki (purified PARP protein; Inhibition Constant Ki (nM)) [nM] |
| --- | --- | --- | --- |
| O=C1NCCn2c(-c3cccc(Oc4ccc(Cl)c(Cl)c4)c3)nc3cccc1c32 [Example 63, 1-[3-(3,4-Dichlorophenoxy)-phenyl]-8,9-dihydro-7H-2,7,9a-triaza-benzo[cd]azulen-6-one] | 252 to 254 °C (dec.) | 13 nM |  |
| COc1ccc(Oc2cccc(-c3nc4cccc5c4n3CCNC5=O)c2)cc1 [Example 64, 1-[3-(4-Methoxyphenoxy)-phenyl]-8,9-dihydro-7H-2,7,9a-triaza-benzo[cd]azulen-6-one] | 196 to 198 °C | 6.2 nM |  |
| O=C1NCCn2c(-c3cccc(Oc4cc(Cl)cc(Cl)c4)c3)nc3cccc1c32 [Example 65, 1-[3-(3,5-Dichlorophenoxy)-phenyl]-8,9-dihydro-7H-2,7,9a-triaza-benzo[cd]azulen-6-one] | 258 to 259 °C (dec.) | 11 nM |  |
| O=C(c1ccccc1)c1cccc(-c2nc3cccc4c3n2CCNC4=O)c1 [Example 66, 1-(3-Benzoylphenyl)-8,9-dihydro-7H-2,7,9a-triaza-benzo[cd]azulen-6-one] | 237 to 238 °C (dec.) | 8.9 nM |  |
| O=C1NCCn2c(-c3cccc(Cc4ccccc4)c3)nc3cccc1c32 [Example 67, 1-(3-Benzylphenyl)-8,9-dihydro-7H-2,7,9a-triaza-benzo[cd]azulen-6-one] | 205 to 208 °C | 9.3 nM |  |
| CNCc1ccc(-c2cc3cccc4c3n2CCNC4=O)cc1 [Example 83, 6-(4-Methylaminomethyl-phenyl)-3,4-dihydro-2H-[1,4]diazepino[6,7,1-hi]indol-1-one] | 178 to 180 °C |  |  |
| O=Cc1ccc(-c2cc3cc(F)cc4c3n2CCNC4=O)cc1 [Example 169, 4-(9-Fluoro-1-oxo-1,2,3,4-tetrahydro-[1,4]diazepino[6,7,1-hi]indol-6-yl)-benzaldehyde] | 212 to 214 °C |  |  |
| O=C1N[C@@H](COCc2ccccc2)Cn2c(-c3ccc(Cl)cc3)nc3cccc1c32 [Example 237b, (R)-8-Benzyloxymethyl-1-(4-chloro-phenyl)-8,9-dihydro-7H-2,7,9a-triaza-benzo[cd]azulen-6-one] |  | 30 nM |  |
| CN(C)Cc1ccc(-c2nc3cccc4c3n2C[C@H](CO)NC4=O)cc1 [Example 238, (R)-1-(4-Dimethylaminomethyl-phenyl)-8-hydroxymethyl-8,9-dihydro-7H-2,7,9a-triaza-benzo[cd]azulen-6-one] |  | 7.3 nM |  |
| O=C1N[C@@H](COCc2ccccc2)Cn2c(-c3ccc(CO)cc3)nc3cccc1c32 [Example 238a, (R)-8-Benzyloxymethyl-1-(4-hydroxymethyl-phenyl)-8,9-dihydro-7H-2,7,9a-triaza-benzo[cd]azulen-6-one] |  | 30.7 nM |  |
| CN(CCc1ccccc1)Cc1ccc(-c2nc3cccc4c3n2C[C@H](CO)NC4=O)cc1 [Example 239, (R)-8-Hydroxymethyl-1-{4-[(methyl-phenethyl-amino)-methyl]-phenyl}-8,9-dihydro-7H-2,7,9a-triaza-benzo[cd]azulen-6-one] |  | 7.8 nM |  |
| CNCc1ccc(-c2nc3cccc4c3n2C[C@H](CO)NC4=O)cc1 [Example 240, (R)-8-Hydroxymethyl-1-(4-methylaminomethyl-phenyl)-8,9-dihydro-7H-2,7,9a-triaza-benzo[cd]azulen-6-one] |  | 4.2 nM and 4.5 nM |  |
| O=C1N[C@@H](CO)Cn2c(-c3ccc(CN4CCCC4)cc3)nc3cccc1c32 [Example 241, (R)-8-Hydroxymethyl-1-(4-pyrrolidin-1-ylmethyl-phenyl)-8,9-dihydro-7H-2,7,9a-triaza-benzo[cd]azulen-6-one] |  | 6.8 nM |  |
| N#CCc1ccc(-c2nc3cccc4c3n2CCNC4=O)cc1 [Example 242, [4-(6-oxo-6,7,8,9-Tetrahydro-2,7,9a-triaza-benzo[cd]azulen-1-yl)-phenyl]-acetonitrile] |  | 3.4 nM |  |
| Cc1ccc(C)n1Cc1ccc(-c2nc3cccc4c3n2CCNC4=O)cc1 [Example 244, 1-[4-(2,5-Dimethyl-pyrrol-1-ylmethyl)-phenyl]-8,9-dihydro-7H-2,7,9a-triaza-benzo[cd]azulen-6-one] |  | 14 nM |  |
| CC(O)c1ccc(-c2nc3cccc4c3n2CCNC4=O)cc1 (stereo not drawn) [Example 245a, 1-[4-(1-Hydroxy-ethyl)-phenyl]-8,9-dihydro-7H-2,7,9a-triaza-benzo[cd]azulen-6-one] |  | 5.2 nM and 5.3 nM |  |
| O=C1NCCn2c(-c3ccc(C(Cc4ccccc4)N4CCCC4)cc3)nc3cccc1c32 (stereo not drawn) [Example 247, 1-[4-(2-Phenyl-1-pyrrolidin-1-yl-ethyl)-phenyl]-8,9-dihydro-7H-2,7,9a-triaza-benzo[cd]azulen-6-one] |  | 5.4 nM |  |
| O=C1NCCn2c(-c3ccc(C(O)Cc4ccccc4)cc3)nc3cccc1c32 (stereo not drawn) [Example 247a, 1-[4-(1-Hydroxy-2-phenyl-ethyl)-phenyl]-8,9-dihydro-7H-2,7,9a-triaza-benzo[cd]azulen-6-one] |  | 10 nM |  |
| O=C1NCCn2c(-c3ccc(/C=C/c4ccccc4)cc3)nc3cccc1c32 [Example 247c, 1-[4-((E)-Styryl)-phenyl]-8,9-dihydro-7H-2,7,9a-triaza-benzo[cd]azulen-6-one] |  | 16 nM |  |
